Measurements: patent US20240261374A1, “PHARMACEUTICAL COMPOSITION AND KIT COMPRISING AN IMMUNOMODULATORY SUBSTANCE FOR TREATING DISEASES” (ellennbe GmbH, priority 2021, published 2024)

What was measured:
[1] = tested on: ankylosing spondylitis (Bechterew's disease); assay type: in vivo, human; details: for Outcome of earlier treatment with TNF-α inhibitors (patient history): human, in vivo
rheumatoid arthritis = test: Treatment of patients suffering from rheumatoid arthritis (CRP, tender/swollen joints, HAQ, patient's statement); assay type: in vivo, human
skin = details: healthy subjects, cited from earlier work
polymyalgia rheumatica = test: Treatment of patients suffering from polymyalgia rheumatica (CRP, tender/swollen joints, HAQ); assay type: in vivo, human; details: Patient 14; 70 mg gradually reduced to 8 mg, increased again to 10 mg
Description: The investigation and determination of the joint condition has been performed by a physician or rheumatologist. A tender joint (TJ) was pressure sensitive but not necessarily swollen. […] The amount of TJ and SJ was counted. A reduction in the amounts of TJ and/or SJ, respectively, was an indication for a reduction in inflammation, mitigation of the disease and an improvement of the patient's health condition.
The CRP (C-reactive protein) is the most important blood laboratory value for detecting and monitoring inflammation in the body. It was determined by a certified laboratory. A low CRP indicates the absence of an inflammation, while a high CRP is indicative for an inflammation to be present.
The functional disability index (HAQ) is the average of the highest numerical values reported for each of the eight different domains. High HAQ-scores correspond to a high degree of disability.
The treatment according to the present invention was performed by topically applying a heat pad on the upper side of the forearm as described in the Materials and Methods' section ‘Application of a heat pad’. The heat pad was applied for about 1 min to 2 min. The skin turned red and became warm and an increase in the skin temperature was palpable. About 30 see to 1 min after removing the heat pad the injections were performed intradermally within the skin of the red and warmed skin area. […]

**Q.** Which “Outcome of earlier treatment with TNF-α inhibitors (patient history)” value [1] does the source give for Remicade®: TNF-α inhibitor here?
**A.** accompanied by strong adverse side effects

**Q.** For “Simponi®: biologic, golimumab; TNF-α inhibitor”, which “Effect of earlier treatment with biologics (patient history)” value ([1]; Patient 11, ended more than a year before, lost their effect within half a year) is on record?
**A.** had little effect from the outset

**Q.** What about the “Outcome of earlier treatment with TNF-α inhibitors (patient history)” value [1] of the same compound?
**A.** accompanied by strong adverse side effects

**Q.** With `CN(Cc1cnc2nc(N)nc(N)c2n1)c1ccc(C(=O)N[C@@H](CCC(=O)O)C(=O)O)cc1` [MTX, methotrexate] as the compound, how does the “Adverse side effects / outcome of earlier treatment (patient history)” value (rheumatoid arthritis; human, in vivo) read?
**A.** severe adverse effects (tendency to fibrosis in the lungs and sinusitis)

**Q.** With `COC(=O)c1cccnc1` [MN, methyl nicotinate] as the compound, how does the “Perfusion response of the skin” value (skin; 50 μl of 20 mmol/l MN topically) read?
**A.** reproducible perfusion response

**Q.** And the “Time course of the perfusion increase” value (skin; topical application of MN)?
**A.** reaches a stable plateau phase after five minutes

**Q.** Which “Effectiveness of earlier or basic treatment (patient history)” value (rheumatoid arthritis; Patient 7, not the treatment of the invention) does the source give for tocilizumab: IL-6 inhibitor here?
**A.** only partially efficient

**Q.** With `CC[C@@H]1CN(C(=O)NCC(F)(F)F)C[C@@H]1c1cnc2cnc3[nH]ccc3n12` [upadacitinib] as the compound, how does the “Adverse side effects / outcome of earlier treatment (patient history)” value (rheumatoid arthritis; Patient 7, years 2008 to April 2021) read?
**A.** severe adverse effects (tendency to fibrosis in the lungs and sinusitis)

**Q.** For Enbrel®, which “Outcome of earlier treatment with TNF-α inhibitors (patient history)” value [1] is on record?
**A.** accompanied by strong adverse side effects

**Q.** For `C[C@]12C=CC(=O)C=C1CC[C@@H]1[C@@H]2[C@@H](O)C[C@@]2(C)[C@H]1CC[C@]2(O)C(=O)CO` [prednisolone], which “Outcome of earlier treatment (patient history)” value (polymyalgia rheumatica) is on record?
**A.** without complete remission of symptoms
